Assay results taken from patent US9073916B2, “Prodrug forms of kinase inhibitors and their use in therapy” (AUCKLAND UNISERVICES LIMITED, priority 2009, dated 2015).
Read-outs that look alike come from different tables or passages of the source.

Experiments:
erbB1 [1] = molecular target: T1, erbB1 (Homo sapiens, UniProt P00533); assay: Isolated enzyme inhibition (Invitrogen Z′-LYTE kinase assay); assay type: biochemical; conditions: 10 μM ATP, duplicate
erbB1^T790M = erbB1^T790M (Homo sapiens, UniProt P00533, T790M); assay: as above; assay type: biochemical; conditions: 10 μM ATP, duplicate
Chain of erbB1^T790M (P00533 25-1210 T790M): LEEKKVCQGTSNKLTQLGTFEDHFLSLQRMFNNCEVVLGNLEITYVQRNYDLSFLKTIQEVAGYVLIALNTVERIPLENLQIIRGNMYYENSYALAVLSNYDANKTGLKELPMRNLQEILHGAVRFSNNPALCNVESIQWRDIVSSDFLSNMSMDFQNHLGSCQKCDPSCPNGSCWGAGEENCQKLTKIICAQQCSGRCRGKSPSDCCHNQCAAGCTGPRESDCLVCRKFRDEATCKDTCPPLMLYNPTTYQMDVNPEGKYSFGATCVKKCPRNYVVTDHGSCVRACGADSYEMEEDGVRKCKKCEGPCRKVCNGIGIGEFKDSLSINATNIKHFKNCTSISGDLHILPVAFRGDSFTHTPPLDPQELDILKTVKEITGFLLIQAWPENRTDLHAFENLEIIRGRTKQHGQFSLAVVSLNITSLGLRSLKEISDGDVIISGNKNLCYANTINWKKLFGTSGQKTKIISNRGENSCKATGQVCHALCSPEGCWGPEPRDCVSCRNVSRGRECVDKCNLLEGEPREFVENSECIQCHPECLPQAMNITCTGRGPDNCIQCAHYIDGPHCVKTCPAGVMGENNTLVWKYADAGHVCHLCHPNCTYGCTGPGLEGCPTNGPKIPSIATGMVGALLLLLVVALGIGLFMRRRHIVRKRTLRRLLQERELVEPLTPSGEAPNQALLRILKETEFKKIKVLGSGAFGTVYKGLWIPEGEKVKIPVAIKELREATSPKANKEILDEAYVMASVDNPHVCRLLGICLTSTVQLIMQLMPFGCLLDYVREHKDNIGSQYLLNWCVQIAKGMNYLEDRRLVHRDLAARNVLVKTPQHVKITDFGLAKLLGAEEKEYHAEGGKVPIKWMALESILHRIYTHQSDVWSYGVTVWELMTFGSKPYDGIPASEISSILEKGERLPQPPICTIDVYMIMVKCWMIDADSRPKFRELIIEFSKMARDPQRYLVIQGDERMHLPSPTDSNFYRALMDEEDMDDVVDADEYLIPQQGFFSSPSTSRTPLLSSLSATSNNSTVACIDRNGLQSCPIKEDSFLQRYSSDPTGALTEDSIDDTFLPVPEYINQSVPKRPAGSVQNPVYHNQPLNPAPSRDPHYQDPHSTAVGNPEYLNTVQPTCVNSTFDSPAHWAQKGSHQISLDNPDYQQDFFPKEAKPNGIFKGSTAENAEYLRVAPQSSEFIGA

erbB2 [2] = molecular target: T2, erbB2 (Homo sapiens, UniProt P04626); assay: as above; assay type: biochemical; conditions: 10 μM ATP, duplicate
T2 sequence (P04626 23-1255): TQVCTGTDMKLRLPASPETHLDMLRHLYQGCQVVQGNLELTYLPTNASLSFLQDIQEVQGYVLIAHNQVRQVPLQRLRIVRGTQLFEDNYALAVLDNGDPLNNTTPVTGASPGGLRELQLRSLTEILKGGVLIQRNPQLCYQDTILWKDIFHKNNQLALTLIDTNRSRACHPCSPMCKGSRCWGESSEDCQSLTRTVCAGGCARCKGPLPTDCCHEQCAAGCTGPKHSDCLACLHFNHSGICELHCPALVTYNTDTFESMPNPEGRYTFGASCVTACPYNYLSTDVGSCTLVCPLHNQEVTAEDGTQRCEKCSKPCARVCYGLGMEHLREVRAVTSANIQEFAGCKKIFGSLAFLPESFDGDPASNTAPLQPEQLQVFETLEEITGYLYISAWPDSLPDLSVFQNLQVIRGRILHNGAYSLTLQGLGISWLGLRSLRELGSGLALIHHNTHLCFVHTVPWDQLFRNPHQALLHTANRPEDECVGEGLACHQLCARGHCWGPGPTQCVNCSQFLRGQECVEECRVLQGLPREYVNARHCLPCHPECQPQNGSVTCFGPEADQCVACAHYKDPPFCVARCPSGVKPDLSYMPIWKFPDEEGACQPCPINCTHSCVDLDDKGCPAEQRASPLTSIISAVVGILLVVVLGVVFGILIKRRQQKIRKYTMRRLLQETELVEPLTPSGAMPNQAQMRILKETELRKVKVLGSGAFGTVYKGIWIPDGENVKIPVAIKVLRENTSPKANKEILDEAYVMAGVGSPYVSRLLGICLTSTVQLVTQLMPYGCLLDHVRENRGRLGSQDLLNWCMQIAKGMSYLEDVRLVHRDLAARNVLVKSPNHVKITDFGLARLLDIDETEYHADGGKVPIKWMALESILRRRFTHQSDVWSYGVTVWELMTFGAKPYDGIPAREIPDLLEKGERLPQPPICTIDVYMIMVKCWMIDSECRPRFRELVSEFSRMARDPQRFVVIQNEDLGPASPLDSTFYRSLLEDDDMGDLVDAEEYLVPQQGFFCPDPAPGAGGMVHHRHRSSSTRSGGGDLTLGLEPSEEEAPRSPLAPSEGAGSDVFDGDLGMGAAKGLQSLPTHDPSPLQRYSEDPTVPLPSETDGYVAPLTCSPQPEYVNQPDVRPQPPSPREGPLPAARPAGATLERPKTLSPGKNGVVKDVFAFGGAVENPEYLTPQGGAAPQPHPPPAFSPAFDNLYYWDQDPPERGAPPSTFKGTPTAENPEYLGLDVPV

erbB4 = erbB4 (Homo sapiens, UniProt Q15303); assay: as above; assay type: biochemical; conditions: 10 μM ATP, duplicate
Chain of erbB4 (Q15303 26-1308): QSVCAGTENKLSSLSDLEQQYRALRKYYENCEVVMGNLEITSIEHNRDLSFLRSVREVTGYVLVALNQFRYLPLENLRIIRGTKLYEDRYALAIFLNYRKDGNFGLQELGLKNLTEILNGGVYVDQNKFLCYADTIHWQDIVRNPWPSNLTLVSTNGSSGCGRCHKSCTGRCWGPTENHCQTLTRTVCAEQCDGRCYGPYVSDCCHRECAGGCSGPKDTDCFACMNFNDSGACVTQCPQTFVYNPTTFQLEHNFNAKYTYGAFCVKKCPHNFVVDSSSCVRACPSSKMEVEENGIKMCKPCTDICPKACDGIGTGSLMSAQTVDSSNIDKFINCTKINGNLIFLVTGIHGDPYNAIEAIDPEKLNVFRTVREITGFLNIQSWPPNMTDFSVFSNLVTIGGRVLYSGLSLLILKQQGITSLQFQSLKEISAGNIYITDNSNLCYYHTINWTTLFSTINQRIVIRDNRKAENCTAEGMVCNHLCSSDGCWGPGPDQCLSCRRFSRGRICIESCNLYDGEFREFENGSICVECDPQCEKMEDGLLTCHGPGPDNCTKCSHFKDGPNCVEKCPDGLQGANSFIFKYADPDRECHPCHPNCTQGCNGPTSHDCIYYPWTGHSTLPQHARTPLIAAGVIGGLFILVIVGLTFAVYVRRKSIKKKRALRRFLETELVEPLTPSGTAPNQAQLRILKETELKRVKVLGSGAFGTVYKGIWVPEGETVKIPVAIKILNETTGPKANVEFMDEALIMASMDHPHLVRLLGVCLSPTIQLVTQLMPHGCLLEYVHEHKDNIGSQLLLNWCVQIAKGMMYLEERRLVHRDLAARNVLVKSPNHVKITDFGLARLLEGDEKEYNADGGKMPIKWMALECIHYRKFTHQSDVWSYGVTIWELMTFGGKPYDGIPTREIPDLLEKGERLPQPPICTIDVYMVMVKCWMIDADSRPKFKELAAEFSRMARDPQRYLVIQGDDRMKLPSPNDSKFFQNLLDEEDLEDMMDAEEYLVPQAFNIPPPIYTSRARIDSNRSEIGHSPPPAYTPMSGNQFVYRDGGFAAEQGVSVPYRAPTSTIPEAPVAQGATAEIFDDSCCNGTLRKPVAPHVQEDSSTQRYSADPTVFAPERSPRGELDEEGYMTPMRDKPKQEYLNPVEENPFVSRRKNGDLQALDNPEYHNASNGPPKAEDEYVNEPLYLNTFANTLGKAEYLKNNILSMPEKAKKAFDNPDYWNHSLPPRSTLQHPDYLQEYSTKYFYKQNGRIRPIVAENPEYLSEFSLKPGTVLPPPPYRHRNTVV

SKBR3 cells = assay: Cellular growth inhibition (sulforhodamine B); assay type: cell-based, Human; conditions: Table 3
Method: (§1) Human A431, BT474, SKBR3, SKOV3, SW620, H1975 and HT29 carcinoma cells in log phase exponential growth in alpha minimal essential media (αMEM) containing 5% fetal bovine serum (FBS), were harvested by trypsinisation (1× trypsin/EDTA, Gibco Brl), counted, and seeded into 96 well plates (Nunc) at cell densities ranging from 800-1500 cells/well. Half of the cell samples were seeded into plates that were pre-equilibrated and held in an anoxic environment (90% N2, 5% H2, 5% CO2, 37° Q Anaerobic chamber, Coy Laboratory Products). […] At the end of this period the anoxic plates were recovered from the anaerobic camber and held under normoxia in a standard CO2 incubator (37° C.) for 20 hours. All plates were washed free of compound and cells were allowed to proliferate for a further 4 days in αMEM containing 5% FBS+antibiotics. Cells were fixed in trichloroacteic acid (30 min), washed and stained with sulforhodamine B (SRB, 60 min) prior to washing in acidified water. SRB was solubilised and absorption read at 450 nm to calculate cell densities. Inhibition of proliferation was calculated relative to untreated control wells.

SW620 cells = assay: Cellular growth inhibition (sulforhodamine B); assay type: cell-based, Human; conditions: Table 3
Method: as §1

[3] = Steady state radiolytic reduction by the CO2.− radical with HPLC-MS; assay type: physicochemical
A431 cells = assay: Oxic and hypoxic cellular metabolism of prodrug 20; assay type: in vitro ADME, Human; conditions: 10 uM prodrug
Method: A431 and SKOV3 cells were grown in a 175 flask and seeded at 40K, a density which gave an 80-90% confluent cell layer after 7 days growth. Cells were washed with PBS, harvested with 0.05% trypsin/EDTA, centrifuged at 1000 rpm for 5 mins at room temperature and re-suspended in a 1 mL of cell culture medium (α-MEM containing 10% FCS, 10 mM D-Glucose and 0.2 mM 2′-deoxycytidine). Cell numbers were determined with the Coulter counter and the appropriate number of cells was transferred to a new tube. 5×10^5 cells per well were plated into wells of a 24-well plate in a total volume of 350 μL/well (i.e. 14.3×10^5 cells/mL). Cells were incubated at 37° C. for two hours to attach to the wells and for anoxic samples to equilibrate. […] The cells were incubated for 1, 2 or 3 hours at 37° C. At the appropriate time the 24 well plate was removed from the incubator/anoxic chamber and placed on ice. The contents of each well was transferred to the microcentrifuge tube kept on ice. 800 μL of acetonitrile (spiked with D6 internal standards of compounds 11 and 20, each 0.5 uM) was added to each of the drug treated wells to allow efficient extraction from the cell monolayer. Then the entire contents (1200 uL=400+800 uL) was vortex mixed and transferred to −80° C. for storage until they were run on the LC-MS/MS system. A similar procedure was followed for the control samples. […]

[4] = Plasma and A431 tumour pharmacokinetics of compounds 11 and 20
Method: A small piece (˜100 mg) of tissue was placed in biopulveriser well (previously cooled in liquid nitrogen) and reduced to fine powder with a 2-3 strong blows to the stainless steel pestle. The frozen powder was collected in pre-weighed microcentrifuge tube (kept on dry ice). […] The microcentrifuge tubes were spun at 13,000 rpm for 10 min to precipitate the cell debris and proteins. […] The analytes were eluted using a gradient of 0.01% formic acid in acetonitrile (80%)-water (20%) mixture and 0.01% formic acid in water (100%) on Zorbax SB 018, rapid resolution HT 3.0×50 mm, 1.8 micron (Agilent) HPLC column with a flow rate of 0.6 ml/min.

erbB1 [5] = molecular target: T1, erbB1; assay: Cellular erbB1 inhibition: irreversibility wash-out assay in A431 cells; conditions: 1 μM, 1 hour exposure, then EGF stimulation
SKOV3 cells = assay: Cellular growth inhibition (sulforhodamine B); assay type: cell-based, Human; conditions: Table 9; for IC50: Homo sapiens, SK-OV-3
[6] = Plasma and tissue pharmacokinetics of prodrug 42 in H1975 tumour bearing mice; assay type: in vivo; conditions: female, NIH-III, mouse, 20 umol/kg, single iv dose of 42 at 20 μmol/kg
Method: Compound 42 was dosed at a nominal low dose of 20 μmol/kg to nine female NIH-III mice bearing H1975 tumour xenografts, as a solution in DMSO/5% dextrose (20:80) via intravenous injection. […] The frozen powders were then collected in pre-weighed microcentrifuge tubes (kept on dry ice). Four volumes of ice cold acetonitrile (containing 0.5 μM D6-161 as an internal standard) was added to each sample to extract the drug from the tissue powder. […] To 10 μL of plasma (collected in EDTA) was added 40 μL of ice cold acetonitrile (containing 0.5 μM D6-161 as an internal standard). The resulting solution was mixed and then centrifuged at 13,000 rpm for 5 min.

in vivo = conditions: female, NIH-III nude, mouse, ip, pH 4
[7] = Chemical stability by HPLC; conditions: HPLC after 24 h at 37° C.
[8] = Plasma and A431 tumour pharmacokinetics of compounds 42 and 161
erbB2 [9] = molecular target: T2, erbB2; assay: Inhibition of basal phospho-erbB2 in SKOV3 cells (Western blot); assay type: cell-based; parameters: endogenous in cells; host or cells: SKOV3 human ovarian carcinoma cells; conditions: Table 8
Excerpt: Values are plotted using SigmaPlot 10.

[10] = HPLC-MS at 0.95 reducing equivalents
[11] = single ip dose of 20 at 133 umol/kg

T1 sequence (P00533 25-1210): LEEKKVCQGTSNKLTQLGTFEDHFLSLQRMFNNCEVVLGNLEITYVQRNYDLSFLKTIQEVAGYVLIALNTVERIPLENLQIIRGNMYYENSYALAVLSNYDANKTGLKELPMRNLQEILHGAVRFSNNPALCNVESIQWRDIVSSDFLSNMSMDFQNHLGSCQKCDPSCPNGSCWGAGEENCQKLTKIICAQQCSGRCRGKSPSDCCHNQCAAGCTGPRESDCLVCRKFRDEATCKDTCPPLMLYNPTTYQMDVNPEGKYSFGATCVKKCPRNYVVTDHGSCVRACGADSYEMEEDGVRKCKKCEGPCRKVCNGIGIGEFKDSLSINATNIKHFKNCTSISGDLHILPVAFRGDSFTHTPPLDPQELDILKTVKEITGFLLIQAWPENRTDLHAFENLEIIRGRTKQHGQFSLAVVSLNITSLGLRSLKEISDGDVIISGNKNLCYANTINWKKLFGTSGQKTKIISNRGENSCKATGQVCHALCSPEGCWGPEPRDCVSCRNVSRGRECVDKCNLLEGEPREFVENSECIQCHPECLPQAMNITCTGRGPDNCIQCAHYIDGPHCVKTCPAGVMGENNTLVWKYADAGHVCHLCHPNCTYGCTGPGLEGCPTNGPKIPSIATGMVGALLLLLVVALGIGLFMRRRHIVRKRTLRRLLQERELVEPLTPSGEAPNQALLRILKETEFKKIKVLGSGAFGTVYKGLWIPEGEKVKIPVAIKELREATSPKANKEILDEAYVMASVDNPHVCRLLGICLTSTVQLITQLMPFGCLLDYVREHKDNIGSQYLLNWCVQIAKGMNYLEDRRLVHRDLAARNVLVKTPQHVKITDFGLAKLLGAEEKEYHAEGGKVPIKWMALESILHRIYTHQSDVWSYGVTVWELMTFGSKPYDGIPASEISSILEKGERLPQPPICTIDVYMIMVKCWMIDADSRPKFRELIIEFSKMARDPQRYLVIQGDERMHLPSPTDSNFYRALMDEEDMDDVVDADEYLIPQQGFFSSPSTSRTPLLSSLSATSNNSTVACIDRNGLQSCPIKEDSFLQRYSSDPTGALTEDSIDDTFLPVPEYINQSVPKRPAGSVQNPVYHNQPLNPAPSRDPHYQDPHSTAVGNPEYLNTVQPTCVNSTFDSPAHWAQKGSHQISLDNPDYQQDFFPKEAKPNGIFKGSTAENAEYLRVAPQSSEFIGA

## Cn1cnc([N+](=O)[O-])c1C[N+](C)(C)C/C=C/C(=O)Nc1ccc2ncnc(Nc3cccc(Br)c3)c2c1.[Br-] [Compound 20, (2E)-4-{[4-(3-bromoanilino)-6-quinazolinyl]amino}-N,N-dimethyl-N-[(1-methyl-4-nitro-1H-imidazol-5-yl)methyl]-4-oxo-2-buten-1-ammonium bromide]
erbB1 [1]
  IC50: 0.47 nM
erbB1^T790M
  IC50: 594 nM
erbB2 [2]
  IC50: 112 nM
erbB4
  IC50: 85 nM
SKBR3 cells
  SKBR3 Deact.: 49 fold
  SKBR3 HCR: 18.1 fold
SKBR3 cells; 24 hour exposure entirely oxic, read-out: Cellular Growth Inhibition IC50 SKBR3 Oxic
  IC50: 3930 nM
SKBR3 cells; first 4 hours anoxic, read-out: Cellular Growth Inhibition IC50 SKBR3 Anoxic
  IC50: 217 nM
SW620 cells
  SW620 Deact.: 18 fold
  SW620 HCR: 3.1 fold
SW620 cells; 24 hour exposure entirely oxic, read-out: Cellular Growth Inhibition IC50 SW620 Oxic
  IC50: 63300 nM
SW620 cells; first 4 hours anoxic, read-out: Cellular Growth Inhibition IC50 SW620 Anoxic
  IC50: 20200 nM
[3]; 0.95 reducing equivalents
  Effector release/Prodrug loss: 1.00
[3]; HPLC-MS
  Detection of MNA (methyl nitroaromatic): Yes
[3]; [10]
  % Loss of prodrug: 55%
  % Release of effector: 55%
[3]; steady state radiolysis, HPLC-MS
  release of effector following 1-electron reduction: released effector (compound 11) detected
A431 cells
  rate of hypoxic metabolism to inhibitor 11: 200 pmol/hour/million cells
Compound 11 in plasma after dosing prodrug 20
  effector AUC as share of prodrug AUC: one
Effector (compound 11) in plasma after dosing prodrug
  AUC0-250 min Effector: 2.7 µM·h
plasma, IP, 42% of single dose MTD, predicted from modelled curves
  AUC0-250 min Parent: 279 µM·h
[4]; prodrug 20, out to 72 h
  stable tumour tissue concentration: ~30 µmol/kg
[4]; prodrug 20 at 133 umol/kg ip, A431 tumour
  tumour AUC0-72h: 2245 µmol·h/kg
[4]; prodrug 20 dosed at 133 umol/kg ip
  plasma AUC0-72h: 2016 µM·h
[4]; [11]
  AUC0-72 hr A431 Tumour, Compound 20: 2245 µM·h
  AUC0-72 hr Plasma, Compound 20: 2016 µM·h
erbB1 [5]
  erbB1 autophosphorylation, cells not washed free of drug: not completely inhibited

## Cn1cnc([N+](=O)[O-])c1C[N+](C)(C)C/C=C/C(=O)Nc1cc2c(Nc3ccc(F)c(Br)c3)ncnc2cn1 [Compound 42, (2E)-4-{[4-(3-bromo-4-fluoroanilino)pyrido[3,4-d]pyrimidin-6-yl]amino}-N,N-dimethyl-N-[(1-methyl-4-nitro-1H-imidazol-5-yl)methyl]-4-oxo-2-buten-1-ammonium bromide]
SKOV3 cells; 24 hour exposure oxic, read-out: Cellular Growth Inhibition IC50 SKOV3 Oxic
  IC50: 35500 nM
SKOV3 cells; first 4 hours anoxic, read-out: Cellular Growth Inhibition IC50 SKOV3 Anoxic
  IC50: 2850 nM
SKOV3 cells
  SKOV3 Deact.: 42 fold
  SKOV3 HCR: 20.3 fold
[6]; H1975 tumour, read-out: AUC0-24 hr H1975 Tumour, 42
  AUC(0-t): 123 µM·h
[6]; liver, read-out: AUC0-24 hr Liver, 42
  AUC(0-t): 256 µM·h
[6]; plasma, read-out: AUC0-24 hr Plasma, 42
  AUC(0-t): 24.7 µM·h
[6]; skin, read-out: AUC0-24 hr Skin, 42
  AUC(0-t): 198 µM·h
In vivo
  MTD: 133 µmol/kg
physchem; aqueous buffer
  solubility: 129 µM
physchem; water
  solubility: > 1160 µM
[7]
  Stability PBS (percentage parent remaining): 77%
  Stability Water (percentage parent remaining): 98%
  Stability α-MEM + FCS (5%) (percentage parent remaining): 61%
[8]; prodrug 42, out to 72 h
  stable tumour tissue concentration: ~30 µmol/kg
[8]; prodrug 42 at 100 umol/kg ip, A431 tumour
  tumour AUC0-72h: 2821 µmol·h/kg
[8]; ~75% of q3dx4 MTD each
  plasma AUC fold greater than for administration of inhibitor 161: ~27 fold
erbB2 [9]; SKOV3 cells
  Deact. erbB2 (fold reduction in cellular inhibition relative to the parent kinase inhibitor): 35 fold
erbB2 [9]; basal phospho-erbB2 in SKOV3 cells, read-out: Cellular Enzyme Inhibition IC50 erbB2
  IC50: 212 nM
